Article PMC5618421, “Anti-Inflammatory Effects of Curvularin-Type Metabolites from a Marine-Derived Fungal Strain Penicillium sp. SF-5859 in Lipopolysaccharide-Induced RAW264.7 Macrophages” (Marine Drugs, 2017)

Legend:
[1] = system: NO production in LPS-treated RAW 264.7 macrophages; assay: Inhibition of NO production (nitrite, Griess reaction) in LPS-treated RAW264.7 macrophages; assay type: cell-based; settings: Mus musculus; RAW264.7 macrophages pre-treated 3 h with compound, then LPS (1 μg/mL) 24 h; Griess reaction
Protocol: All isolated compounds (1–9) were evaluated for their anti-inflammatory effects. […] NO is a small molecule which is an intracellular mediator produced in various immune cells. It plays a pivotal role in the physiological and pathological condition of inflammatory symptoms. PGE2 can also regulate the immune and inflammatory responses. In this study, RAW264.7 macrophages were pre-treated for 3 h in the medium containing non-toxic concentrations (Table 2) of each compound (1–9), and then LPS (1 μg/mL) was treated for 24 h. According to the LPS stimulation of RAW264.7 macrophages, production of NO and PGE2 was increased, and the effects of all compounds on the production level of NO and PGE2 were evaluated by the Griess reaction and a PGE2 kit, respectively. […] To evaluate the impact of phenol and resorcinol groups in the curvularin-type metabolites for the anti-inflammatory activity, 5-O-methyl and 5,7,-di-O-methyl derivatives of curvularin (3a and 3b, respectively), as well as 5-O-acetyl and 5,7,-di-O-acetyl derivatives of curvularin (3c and 3d, respectively), were prepared, and the structures of 3a–3d were identified by comparison the ^1H and ^13C-NMR spectroscopic data with those of curvularin (3), and confirmed by their HRESIMS. […] The position of the methoxy group in 3a was confirmed by HMBC correlation between methoxy signal at δH 3.77 (3H, s, 5-OCH3) and δC 161.8 (C-5). The NOESY cross-peaks between acetyl proton ([…]) with H-2, H-4, and H-16 of 3c were used to identify the position of the acetyl group in 3c. […] Further systematic investigations are needed to clarify the structure activity relationship associated with the modification of the aliphatic part of the molecule.
As an indicator of NO production in RAW264.7 macrophages, production of nitrite, a stable end-product of NO oxidation, was estimated. Briefly, the concentration of nitrite in the conditioned media was determined by a method based on the Griess reaction, and the details of the assay were described previously.

[2] = system: iNOS; assay: Western blot of iNOS protein expression in LPS-stimulated RAW264.7 macrophages; assay type: cell-based; settings: pre-treated 3 h, LPS 24 h
From the text: Therefore, we further tested whether inhibitory effects of 8 against NO and PGE2 productions are correlated with the protein expression of pro-inflammatory enzymes (i.e., iNOS and COX-2, respectively), which are known to catalyze the production of NO and PGEs in LPS-stimulated cells. […] Upon the stimulation by LPS, macrophages can also trigger the production of pro-inflammatory cytokines such as TNF-α, and ILs. The overproduction of these cytokines contributes to the pathogenesis of inflammatory diseases. Thus, we further evaluated the effects of 8 on the mRNA expression of pro-inflammatory cytokines in the LPS-induced cells. The cells were pre-treated with indicated concentration for 3 h, followed by LPS stimulation (1 μg/mL) for 6 h. The mRNA expression of pro-inflammatory cytokines was determined by RT-qPCR.
Figure 2 Effects of 8 on protein expression levels of iNOS and COX-2 (a), and mRNA expression levels of IL-1β (Il1b) (b), IL-6 (Il6) (c), and TNF-α (Tnf) (d) in RAW264.7 macrophages. The cells were pre-treated for 3 h with the indicated concentrations of 8 and stimulated for 24 h (a), and 6 h (b–d) with LPS (1 μg/mL). The measurement of western blot analysis and RNA quantification for Il1b, Il6, and Tnf expression were performed as described in the Materials and Methods. […]
The proteins of iNOS, COX-2, NF-κB, and MAPKs were measured by Western blot analysis. […]

[3] = system: IL-1β (Il1b); assay: RT-qPCR of IL-1β mRNA in LPS-stimulated RAW264.7 macrophages; assay type: cell-based; settings: pre-treated 3 h, LPS (1 μg/mL) 6 h
[4] = system: IL-6 (Il6); assay: RT-qPCR of IL-6 mRNA in LPS-stimulated RAW264.7 macrophages; assay type: cell-based; settings: pre-treated 3 h, LPS (1 μg/mL) 6 h
[5] = system: TNF-α (Tnf); assay: RT-qPCR of TNF-α mRNA in LPS-stimulated RAW264.7 macrophages; assay type: cell-based; settings: pre-treated 3 h, LPS (1 μg/mL) 6 h
[6] = system: NF-κB (p50 and p65); assay: Western blot of nuclear NF-κB (p50 and p65) in LPS-treated RAW264.7 macrophages; assay type: cell-based; settings: pre-treated 3 h, LPS (1 μg/mL) 1 h
Protocol: (§1) Figure 3 Effects of 8 on NF-κB activation (nuclear-p50 and p65) (a), IκBα phosphorylation and degradation (b), and the DNA binding activity of NF-κB (c) in LPS-treated RAW264.7 macrophages. Cells were pre-treated with the indicated concentrations of 8 for 3 h and stimulated with LPS (1 μg/mL) for 1 h. Western blot analysis (IκBα and p-IκBα in the cytoplasm and NF-κB in the nucleus) was performed as described in the Materials and Methods. Representative blots from three independent experiments are shown. A commercially-available NF-κB ELISA kit (Active Motif) was used to test the nuclear extracts and determine the degree of NF-κB binding. The data shown represent the mean values of three independent experiments. * p < 0.05 compared with the group treated with LPS.
(§2) The proteins of iNOS, COX-2, NF-κB, and MAPKs were measured by Western blot analysis. The details of procedures for Western blot analysis were described previously.
(§3) The proteins of nuclear NF-κB (p50 and p65) and cytosolic IκBα (p-IκBα and IκBα) were obtained by using cytosolic and nuclear fractions. The details of this procedure have been described previously.

[7] = system: IκB-α; assay: Western blot of cytosolic IκBα phosphorylation and degradation in LPS-treated RAW264.7 macrophages; assay type: cell-based; settings: pre-treated 3 h, LPS (1 μg/mL) 1 h
Protocol: as §1, §2, §3

[8] = system: NF-κB; assay: DNA binding activity of NF-κB in nuclear extracts (TransAM ELISA kit); assay type: cell-based; settings: pre-treated 3 h, LPS (1 μg/mL) 1 h
Protocol: as §1
TransAM kit (Active Motif, Carlsbad, CA, USA) was used to estimate the DNA-binding activity of NF-κB in the nuclear extract according to the manufacturer’s instructions as described previously.

[9] = system: p38; assay: Western blot of p38 phosphorylation in LPS-treated RAW264.7 macrophages; assay type: cell-based; settings: pre-treated 3 h, LPS (1 μg/mL) 30 min
Protocol: (§4) Figure 4 Effects of 8 on p38 (a), JNK (b), and ERK (c) phosphorylation in RAW264.7 macrophages. Cells were pre-treated with the indicated concentrations of 8 for 3 h and stimulated for 30 min with LPS (1 μg/mL). Cell extracts were subjected to Western blotting with antibodies specific for phosphorylated-p38 (p-p38), phosphorylated JNK (p-JNK), or phosphorylated ERK1/2 (p-ERK). Membranes were stripped and re-probed to measure the total abundance of each MAPK as a control measurement. Representative blots from three independent experiments are shown.
as §2

[10] = system: c-Jun N-terminal kinase (JNK); assay: Western blot of JNK phosphorylation in LPS-treated RAW264.7 macrophages; assay type: cell-based; settings: pre-treated 3 h, LPS (1 μg/mL) 30 min
Protocol: as §4, §2

[11] = system: extracellular signal-regulated kinase (ERK); assay: Western blot of ERK phosphorylation in LPS-treated RAW264.7 macrophages; assay type: cell-based; settings: pre-treated 3 h, LPS (1 μg/mL) 30 min
Protocol: as §4, §2

[12] = system: p97; parameters: method as in PMID 27223265; settings: interfering with its ATPase activity; cited from earlier work

C[C@H]1CCC/C=C/C(=O)c2c(O)cc(O)cc2CC(=O)O1 [Compound 8, (10E,15S)-10,11-dehydrocurvularin]
IC50 [1]: 1.9 ± 0.3 µM
iNOS protein expression [2]: attenuation of the excessive protein expression of iNOS and COX-2 in a dose-dependent manner
mRNA expression of IL-1β [3]: markedly suppressed the mRNA expression of IL-1β, IL-6, and TNF-α in a dose-dependent manner
mRNA expression of IL-6 [4]: markedly suppressed the mRNA expression of IL-1β, IL-6, and TNF-α in a dose-dependent manner
mRNA expression of TNF-α [5]: markedly suppressed the mRNA expression of IL-1β, IL-6, and TNF-α in a dose-dependent manner
nuclear translocation of p50 and p65 [6]: clearly suppressed the nuclear translocation of p50 and p65 in a dose-dependent manner
degradation of IκB-α [7]: blocked the degradation of IκB-α in a concentration-dependent manner
phosphorylation of IκB-α [7]: attenuated this phosphorylation of IκB-α
LPS-induced DNA binding activity of NF-κB [8]: declined
LPS-induced phosphorylation of p38 [9]: did not suppress these phosphorylations
LPS-induced phosphorylation of JNK [10]: did not suppress these phosphorylations
LPS-induced phosphorylation of ERK [11]: did not suppress these phosphorylations
inhibition of p97 [12]: covalent inhibitor of p97
